# Experimental data published in paper PMC12498190, “A Photocaged N‐Phosphonopiperidinone as a Selective Photo‐Cleavable DPP8/9 Inhibitor” (Chembiochem, 2025).
# Like-named read-outs stand apart in the source and are kept apart here.
# Tests used:
# [1] = tested on: HEK293 cells; assay: Cell viability assay (MTT); format: cell-based, human; details: 24 h; for Viability of cells (in words): after 5 min green light irradiation
# Method: Figure 2 Competitive ABPP with photo‐cleavable inhibitor 5 in HEK293 cells. A) Schematic overview of a competitive ABPP experiment. A proteome is pre‐incubated with a competitor, followed by a labeling reaction with an activity‐based probe (ABP). In the case of a photocaged inhibitor, the active compound can be released via irradiation. Target proteins of the competitor cannot be bound by the ABP, resulting in an absence of the respective protein band in‐gel analysis. Created in BioRender. Najdzion, M. (2025) https://BioRender.com/84zn8cb B) Gel‐based competitive ABPP experiment in HEK293 cell lysates with the broadband serine hydrolase ABP ≡FP or the DPP8/9‐directed ABP 2 and the photocaged inhibitor 5, at the indicated concentrations, after or without prior irradiation with green light for 5 min. The corresponding pre‐incubation time for 5 was 30 min. C) Corresponding in situ competitive ABPP experiment in HEK293 cell culture, again with 10 µM 2 for 1 h. Labeling was competed by pre‐incubation with 20 µM 5 for 1 h, followed by an activation of the photocaged inhibitor by irradiation for 5 min with a green LED lamp, if applicable. D) Green light treatment has no cytotoxic effect. HEK293 cells were irradiated with a green LED lamp in the presence of 0.5% DMSO for 5 min (‘light’), and cell viability was measured after 24 h. […] Data was normalized to the non‐irradiated control (‘dark’). E) Green light treatment leads to the release of the active DPP8/9 inhibitor. HEK293 cells were incubated with compound 1 or 5 for 24 h. For both compounds, cell viability was measured under ‘dark’ (not irradiated) and ‘light’ (irradiated for 5 min with a green LED lamp after the addition of the inhibitor) conditions. […] Data was normalized to the non‐irradiated DMSO control.
# In order to validate target engagement in living cells and potential cytotoxic effects of green light treatment, we determined cell viability of HEK293 cells after 24 h inhibitor treatment with 5 with or without 5 min green light irradiation, as the application of DPP8/9 inhibitors at high concentrations and thus elimination of any residual DPP8/9 activity results in cytotoxicity.^[ [38], [39] ^– [40] ^] As a control, effects of green light treatment on cell viability were examined in the absence of any inhibitor after 24 h, again with or without 5 min irradiation (Figure 2D). […] Of note, no additional effect of the photocage on cell viability was observed. In summary, our cell viability studies confirm target engagement in live cells exclusively after photorelease, thereby again confirming the suitability of the photocaged DPP8/9 inhibitor 5 as a cell biological tool compound.
# To investigate the cytotoxicity of compounds, 2 × 10^4 HEK293 cells were cultured in DMEM (+/+) on 96‐well flat‐bottom cell culture plates (Sarstedt, Germany) as described above. After 24 h, cells were treated with indicated concentrations of compounds (final DMSO concentration: 0.5%) and, if applicable, irradiated with a green LED lamp (λ = 520−530 nm; Eurolite, Germany) for 5 min. Control cells were treated with DMSO. Cell viability was measured 24 h after compound treatment. To this end, 25 µL Thiazolyl Blue Tetrazolium Bromide (MTT) solution (5 mg mL^−1 MTT (Sigma Aldrich, USA) in PBS (Gibco, USA)) was added to each well directly into the medium. After 3 h of incubation at 37 °C, the medium was removed and formazan crystals were dissolved by adding 150 µL DMSO (1 h, 37 °C, gentle shaking), followed by an absorbance measurement at 570 and 630 nm as a reference using a Tecan Spark 10 M multimode microplate reader (Tecan Group Ltd., Switzerland). Each experiment was performed with five replicates. Relative cell viability was expressed as a percentage relative to the DMSO‐treated control cells.
# [2] = molecular target: DPP9 (Homo sapiens, UniProt Q86TI2); assay: DPP9 enzyme inhibition assay, AMC release from GP-AMC; format: biochemical; parameters: purchased Proteros Biostructures GmbH, Germany; details: for IC50: read-out: Apparent IC50
# Description: We then continued to investigate the biochemical properties of the photocaged compound 5 versus the photoreleased product resembling inhibitor 1. To this end, we performed biochemical enzyme inhibition assays with DPP8 and DPP9 before and after irradiation of 5. Resulting DPP8/9 inhibition was quantified by following the DPP8‐ or DPP9‐mediated proteolysis of the fluorophore 7‐amino‐4‐methylcoumarin (AMC) from the model substrate Gly‐Pro‐AMC (Figure 1C,D and Table 1 ). To induce photocleavage of 5, reaction mixtures were irradiated for 5 min with the same green LED lamp as before, followed by a pre‐incubation of 45 min with the photoreleased inhibitor prior to substrate addition.
# Enzyme activity of human DPP4, DPP8, and DPP9 (Proteros Biostructures GmbH, Germany) was determined by measuring the initial velocity of AMC release from the fluorogenic substrate GP‐AMC (Sigma Aldrich, USA) using a Tecan Spark 10 M multimode microplate reader (Tecan Group Ltd., Switzerland) in activity buffer (20 mM HEPES/KOH pH 7.3, 110 mM potassium acetate, 2 mM magnesium acetate, 0.5 mM EGTA, 0.02% Tween 20, supplemented with 1 mM DTT) and a final volume of 20 μL for maximal 30 min at 30 °C. Prior to the activity measurement, 10 nM of the corresponding enzyme was incubated for 45 min at 30 °C and gentle shaking with the indicated compounds at concentrations ranging from 0 to 100 μM, followed by irradiation with a green LED lamp (λ = 520−530 nm; Eurolite, Germany) for 5 min. The corresponding compounds were dissolved in DMSO and diluted in activity buffer (final DMSO concentration: 1%). To the inhibitor–enzyme mixture, GP‐AMC was then added to a final concentration of 250 μM, and the activity measurement was started. The resulting enzyme activity was calculated from the slope (fluorescence release over time) and plotted against the concentrations of the inhibitor. Apparent IC50 values were calculated using Graph‐Pad Prism v10.4.1 using the equation: [Inhibitor] versus response‐Variable slope (four parameters). All measurements were performed in triplicate, and error bars represent standard errors of the fit.
# Chain of DPP9 (Q86TI2 whole entry): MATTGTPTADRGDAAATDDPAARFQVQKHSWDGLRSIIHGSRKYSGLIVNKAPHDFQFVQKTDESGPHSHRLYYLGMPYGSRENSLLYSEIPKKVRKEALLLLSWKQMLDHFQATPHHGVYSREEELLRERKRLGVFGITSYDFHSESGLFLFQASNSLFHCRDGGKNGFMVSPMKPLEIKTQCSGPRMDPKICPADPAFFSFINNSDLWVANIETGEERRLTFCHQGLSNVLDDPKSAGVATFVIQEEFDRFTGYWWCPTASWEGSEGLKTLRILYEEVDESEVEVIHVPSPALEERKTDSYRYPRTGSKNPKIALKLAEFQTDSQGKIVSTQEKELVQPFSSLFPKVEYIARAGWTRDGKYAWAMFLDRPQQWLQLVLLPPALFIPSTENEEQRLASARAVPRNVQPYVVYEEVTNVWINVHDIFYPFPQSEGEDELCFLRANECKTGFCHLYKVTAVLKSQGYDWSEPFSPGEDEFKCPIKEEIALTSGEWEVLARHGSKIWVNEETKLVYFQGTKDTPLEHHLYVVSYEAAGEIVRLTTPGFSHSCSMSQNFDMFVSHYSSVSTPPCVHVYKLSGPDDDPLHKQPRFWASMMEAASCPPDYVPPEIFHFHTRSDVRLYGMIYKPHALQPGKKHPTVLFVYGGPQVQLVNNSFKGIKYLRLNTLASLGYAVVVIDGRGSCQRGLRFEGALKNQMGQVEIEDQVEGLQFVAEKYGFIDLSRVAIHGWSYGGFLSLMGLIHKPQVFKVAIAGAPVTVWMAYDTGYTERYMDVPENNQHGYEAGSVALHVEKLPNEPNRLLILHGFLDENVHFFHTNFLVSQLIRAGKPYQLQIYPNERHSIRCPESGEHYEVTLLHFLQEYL
compound,measurement,setting,value
CCCCCc1ccc(SCCP(=O)(OCC)N2CCC[C@H](NC(=O)OCC3=C4C(C)=CC(C)=[N+]4[B-](C)(C)n4c(C)cc(C)c43)C2=O)cc1 (some centres unmarked) [Compound 5],Viability of cells (in words),[1]; 25 µM,significantly reduced
same,Viability of cells (in words),[1]; 50 µM,significantly reduced
same,Cytotoxicity (in words),"[1]; dark, up to highest concentrations used",no cytotoxicity
same,Dark/light ratio of apparent IC50,[2],40
same,Increase in potency after green light-mediated photorelease,[2]; apparent IC50 dark vs light,~40 fold
same,IC50,"[2]; dark (without green light irradiation), 45 min pre-incubation",24.7 µM
same,IC50,"[2]; light (5 min green LED, 520-530 nm), 45 min pre-incubation",0.621 ± 0.054 µM
same,IC50,[2]; without irradiation,24.7 ± 6.8 µM
